Source: article PMC8490825 (Frontiers in Molecular Biosciences, 2021)
Where a SMILES comes first, the peptide text is derived from it. Bridges are numbered along the chain shown (N, C = ends).

Key:
[1] = molecular target: hNaV1.7 (Homo sapiens, UniProt Q15858); assay: cell-based; format: cell-based
[2] = molecular target: hNaV1.1 (Homo sapiens, UniProt P35498); assay: cell-based; format: cell-based

Chain of hNaV1.7 (Q15858 whole entry, looked up): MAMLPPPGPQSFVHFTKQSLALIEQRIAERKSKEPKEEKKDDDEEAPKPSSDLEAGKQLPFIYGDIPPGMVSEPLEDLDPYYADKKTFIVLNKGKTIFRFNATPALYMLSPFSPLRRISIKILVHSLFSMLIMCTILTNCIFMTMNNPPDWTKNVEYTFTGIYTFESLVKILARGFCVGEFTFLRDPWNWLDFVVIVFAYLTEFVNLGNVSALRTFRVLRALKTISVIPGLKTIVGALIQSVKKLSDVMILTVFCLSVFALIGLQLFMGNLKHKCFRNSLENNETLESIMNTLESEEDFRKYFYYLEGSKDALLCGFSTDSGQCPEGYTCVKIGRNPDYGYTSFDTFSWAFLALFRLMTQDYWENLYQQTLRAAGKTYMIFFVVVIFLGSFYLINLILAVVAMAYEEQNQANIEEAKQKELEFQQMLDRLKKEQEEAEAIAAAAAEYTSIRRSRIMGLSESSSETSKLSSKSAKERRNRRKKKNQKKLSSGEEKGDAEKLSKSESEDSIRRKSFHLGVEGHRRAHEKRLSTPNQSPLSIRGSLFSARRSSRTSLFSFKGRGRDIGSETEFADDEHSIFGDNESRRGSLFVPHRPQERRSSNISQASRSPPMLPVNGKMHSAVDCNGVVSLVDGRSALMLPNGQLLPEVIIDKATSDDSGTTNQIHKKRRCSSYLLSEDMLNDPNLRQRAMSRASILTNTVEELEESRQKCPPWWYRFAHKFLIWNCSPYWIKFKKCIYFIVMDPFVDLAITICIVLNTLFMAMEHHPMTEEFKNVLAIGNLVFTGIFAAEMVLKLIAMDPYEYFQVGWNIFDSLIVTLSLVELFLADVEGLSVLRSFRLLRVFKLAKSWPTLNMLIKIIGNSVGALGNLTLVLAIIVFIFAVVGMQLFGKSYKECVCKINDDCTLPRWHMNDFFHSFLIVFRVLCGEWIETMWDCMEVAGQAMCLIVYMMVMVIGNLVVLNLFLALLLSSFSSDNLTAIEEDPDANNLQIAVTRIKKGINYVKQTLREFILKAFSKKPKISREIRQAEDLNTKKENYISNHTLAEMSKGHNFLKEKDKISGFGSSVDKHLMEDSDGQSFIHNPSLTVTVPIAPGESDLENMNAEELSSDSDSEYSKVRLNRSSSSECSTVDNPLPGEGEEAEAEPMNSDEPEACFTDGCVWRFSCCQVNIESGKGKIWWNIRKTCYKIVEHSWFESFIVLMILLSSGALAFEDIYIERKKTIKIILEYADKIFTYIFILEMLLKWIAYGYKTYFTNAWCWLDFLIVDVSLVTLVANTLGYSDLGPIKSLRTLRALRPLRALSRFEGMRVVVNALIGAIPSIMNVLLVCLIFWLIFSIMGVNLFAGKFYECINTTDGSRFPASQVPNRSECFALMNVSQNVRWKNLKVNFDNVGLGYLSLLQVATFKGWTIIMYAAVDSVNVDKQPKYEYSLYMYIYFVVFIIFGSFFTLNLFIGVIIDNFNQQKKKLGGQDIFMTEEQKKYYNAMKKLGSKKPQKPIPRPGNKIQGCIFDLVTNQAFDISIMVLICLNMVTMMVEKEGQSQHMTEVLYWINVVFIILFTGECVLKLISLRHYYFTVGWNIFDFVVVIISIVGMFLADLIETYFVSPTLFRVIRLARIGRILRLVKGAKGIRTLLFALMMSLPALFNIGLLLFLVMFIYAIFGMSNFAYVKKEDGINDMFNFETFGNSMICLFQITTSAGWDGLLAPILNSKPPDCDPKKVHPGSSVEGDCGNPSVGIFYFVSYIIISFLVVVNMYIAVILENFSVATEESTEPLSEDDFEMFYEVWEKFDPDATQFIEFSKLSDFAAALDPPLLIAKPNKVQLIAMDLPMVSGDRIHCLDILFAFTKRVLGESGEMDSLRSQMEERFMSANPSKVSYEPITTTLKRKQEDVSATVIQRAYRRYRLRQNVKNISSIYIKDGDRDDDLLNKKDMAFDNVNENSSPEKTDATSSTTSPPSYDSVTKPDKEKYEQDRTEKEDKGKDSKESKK

| Structure (SMILES) | IC50 [1] [µM] | inhibition of NaV1.7, in words [1] | IC50 [2] [µM] | inhibition of NaV1.1, in words [2] |
| --- | --- | --- | --- | --- |
| CSCC[C@@H]1NC(=O)CNC(=O)[C@H](CC(C)C)NC(=O)[C@@H](NC(=O)[C@H](CC(=O)O)NC(=O)[C@H](CC(=O)O)NC(=O)CN)CSSC[C@@H]2NC(=O)[C@@H]3CSSC[C@@H](C(=O)N[C@@H](CCCCN)C(=O)N[C@@H](Cc4ccc(O)cc4)C(=O)N[C@@H](CCC(N)=O)C(=O)N[C@@H](CC(C)C)C(=O)N[C@@H](Cc4c[nH]c5ccccc45)C(=O)O)NC(=O)[C@H](Cc4c[nH]c5ccccc45)NC(=O)[C@H](CCC(N)=O)NC(=O)[C@H](CC(=O)O)NC(=O)[C@H](CCCCN)NC(=O)[C@H](CCCNC(=N)N)NC(=O)[C@H](CO)NC(=O)[C@H](CSSC[C@H](NC(=O)[C@H](CO)NC(=O)[C@H](CO)NC(=O)[C@H](C)NC1=O)C(=O)N[C@@H](CC(=O)O)C(=O)N1CCC[C@H]1C(=O)N[C@@H](CC(N)=O)C(=O)N[C@@H](CC(N)=O)C(=O)N[C@@H](CC(=O)O)C(=O)N[C@@H](CCCCN)C(=O)N3)NC(=O)[C@H](CCCCN)NC(=O)[C@H](CCCNC(=N)N)NC(=O)[C@H](CC(N)=O)NC(=O)[C@@H]1CCCN1C2=O [Peptide F7A] (H-GDDCLGMASSCDPNNDKCCPNRKCSRKDQWCKYQLW-OH; disulfide 4-19, 11-24, 18-31) | > 1 | completely lost its inhibition | > 1 | completely lost its inhibition |
| CSCC[C@@H]1NC(=O)CNC(=O)[C@H](CC(C)C)NC(=O)[C@@H](NC(=O)[C@H](CC(=O)O)NC(=O)[C@H](CC(=O)O)NC(=O)CN)CSSC[C@@H]2NC(=O)[C@@H]3CSSC[C@@H](C(=O)N[C@@H](CCCCN)C(=O)N[C@@H](Cc4ccc(O)cc4)C(=O)N[C@@H](CCC(N)=O)C(=O)N[C@@H](CC(C)C)C(=O)N[C@@H](C)C(=O)O)NC(=O)[C@H](Cc4c[nH]c5ccccc45)NC(=O)[C@H](CCC(N)=O)NC(=O)[C@H](CC(=O)O)NC(=O)[C@H](CCCCN)NC(=O)[C@H](CCCNC(=N)N)NC(=O)[C@H](CO)NC(=O)[C@H](CSSC[C@H](NC(=O)[C@H](CO)NC(=O)[C@H](CO)NC(=O)[C@H](Cc4ccccc4)NC1=O)C(=O)N[C@@H](CC(=O)O)C(=O)N1CCC[C@H]1C(=O)N[C@@H](CC(N)=O)C(=O)N[C@@H](CC(N)=O)C(=O)N[C@@H](CC(=O)O)C(=O)N[C@@H](CCCCN)C(=O)N3)NC(=O)[C@H](CCCCN)NC(=O)[C@H](CCCNC(=N)N)NC(=O)[C@H](CC(N)=O)NC(=O)[C@@H]1CCCN1C2=O [Peptide W35A] (H-GDDCLGMFSSCDPNNDKCCPNRKCSRKDQWCKYQLA-OH; disulfide 4-19, 11-24, 18-31) | > 1 | – | > 1 | – |
| CSCC[C@@H]1NC(=O)CNC(=O)[C@H](CC(C)C)NC(=O)[C@@H](NC(=O)[C@H](CC(=O)O)NC(=O)[C@H](CC(=O)O)NC(=O)CN)CSSC[C@@H]2NC(=O)[C@@H]3CSSC[C@@H](C(=O)N[C@@H](CCCCN)C(=O)N[C@@H](Cc4ccc(O)cc4)C(=O)N[C@@H](CCC(N)=O)C(=O)N[C@@H](C)C(=O)N[C@@H](Cc4c[nH]c5ccccc45)C(=O)O)NC(=O)[C@H](Cc4c[nH]c5ccccc45)NC(=O)[C@H](CCC(N)=O)NC(=O)[C@H](CC(=O)O)NC(=O)[C@H](CCCCN)NC(=O)[C@H](CCCNC(=N)N)NC(=O)[C@H](CO)NC(=O)[C@H](CSSC[C@H](NC(=O)[C@H](CO)NC(=O)[C@H](CO)NC(=O)[C@H](Cc4ccccc4)NC1=O)C(=O)N[C@@H](CC(=O)O)C(=O)N1CCC[C@H]1C(=O)N[C@@H](CC(N)=O)C(=O)N[C@@H](CC(N)=O)C(=O)N[C@@H](CC(=O)O)C(=O)N[C@@H](CCCCN)C(=O)N3)NC(=O)[C@H](CCCCN)NC(=O)[C@H](CCCNC(=N)N)NC(=O)[C@H](CC(N)=O)NC(=O)[C@@H]1CCCN1C2=O [Peptide L34A] (H-GDDCLGMFSSCDPNNDKCCPNRKCSRKDQWCKYQAW-OH; disulfide 4-19, 11-24, 18-31) | > 1 | – | > 1 | – |
| CSCC[C@@H]1NC(=O)CNC(=O)[C@H](CC(C)C)NC(=O)[C@@H](NC(=O)[C@H](CC(=O)O)NC(=O)[C@H](CC(=O)O)NC(=O)CN)CSSC[C@@H]2NC(=O)[C@@H]3CSSC[C@@H](C(=O)N[C@@H](CCCCN)C(=O)N[C@@H](Cc4ccc(O)cc4)C(=O)N[C@@H](CCC(N)=O)C(=O)N[C@@H](CC(C)C)C(=O)N[C@@H](Cc4c[nH]c5ccccc45)C(=O)O)NC(=O)[C@H](Cc4c[nH]c5ccccc45)NC(=O)[C@H](CCC(N)=O)NC(=O)[C@H](CC(=O)O)NC(=O)[C@H](CCCCN)NC(=O)[C@H](CCCNC(=N)N)NC(=O)[C@H](CO)NC(=O)[C@H](CSSC[C@H](NC(=O)[C@H](CO)NC(=O)[C@H](CO)NC(=O)[C@H](Cc4ccccc4)NC1=O)C(=O)N[C@@H](CC(=O)O)C(=O)N[C@@H](C)C(=O)N[C@@H](CC(N)=O)C(=O)N[C@@H](CC(N)=O)C(=O)N[C@@H](CC(=O)O)C(=O)N[C@@H](CCCCN)C(=O)N3)NC(=O)[C@H](CCCCN)NC(=O)[C@H](CCCNC(=N)N)NC(=O)[C@H](CC(N)=O)NC(=O)[C@@H]1CCCN1C2=O [Peptide P12A] (H-GDDCLGMFSSCDANNDKCCPNRKCSRKDQWCKYQLW-OH; disulfide 4-19, 11-24, 18-31) | > 1 | – | > 1 | – |
| CSCC[C@@H]1NC(=O)CNC(=O)[C@H](CC(C)C)NC(=O)[C@@H](NC(=O)[C@H](CC(=O)O)NC(=O)[C@H](CC(=O)O)NC(=O)CN)CSSC[C@@H]2NC(=O)[C@@H]3CSSC[C@@H](C(=O)N[C@@H](CCCCN)C(=O)N[C@@H](Cc4ccc(O)cc4)C(=O)N[C@@H](C)C(=O)N[C@@H](CC(C)C)C(=O)N[C@@H](Cc4c[nH]c5ccccc45)C(=O)O)NC(=O)[C@H](Cc4c[nH]c5ccccc45)NC(=O)[C@H](CCC(N)=O)NC(=O)[C@H](CC(=O)O)NC(=O)[C@H](CCCCN)NC(=O)[C@H](CCCNC(=N)N)NC(=O)[C@H](CO)NC(=O)[C@H](CSSC[C@H](NC(=O)[C@H](CO)NC(=O)[C@H](CO)NC(=O)[C@H](Cc4ccccc4)NC1=O)C(=O)N[C@@H](CC(=O)O)C(=O)N1CCC[C@H]1C(=O)N[C@@H](CC(N)=O)C(=O)N[C@@H](CC(N)=O)C(=O)N[C@@H](CC(=O)O)C(=O)N[C@@H](CCCCN)C(=O)N3)NC(=O)[C@H](CCCCN)NC(=O)[C@H](CCCNC(=N)N)NC(=O)[C@H](CC(N)=O)NC(=O)[C@@H]1CCCN1C2=O [Peptide Q33A] (H-GDDCLGMFSSCDPNNDKCCPNRKCSRKDQWCKYALW-OH; disulfide 4-19, 11-24, 18-31) | 0.099 | – | 0.163 | – |
| CSCC[C@@H]1NC(=O)CNC(=O)[C@H](CC(C)C)NC(=O)[C@@H](NC(=O)[C@H](CC(=O)O)NC(=O)[C@H](CC(=O)O)NC(=O)CN)CSSC[C@@H]2NC(=O)[C@@H]3CSSC[C@@H](C(=O)N[C@@H](CCCCN)C(=O)N[C@@H](Cc4ccc(O)cc4)C(=O)N[C@@H](CCC(N)=O)C(=O)N[C@@H](CC(C)C)C(=O)N[C@@H](Cc4c[nH]c5ccccc45)C(=O)O)NC(=O)[C@H](Cc4c[nH]c5ccccc45)NC(=O)[C@H](CCC(N)=O)NC(=O)[C@H](C)NC(=O)[C@H](CCCCN)NC(=O)[C@H](CCCNC(=N)N)NC(=O)[C@H](CO)NC(=O)[C@H](CSSC[C@H](NC(=O)[C@H](CO)NC(=O)[C@H](CO)NC(=O)[C@H](Cc4ccccc4)NC1=O)C(=O)N[C@@H](CC(=O)O)C(=O)N1CCC[C@H]1C(=O)N[C@@H](CC(N)=O)C(=O)N[C@@H](CC(N)=O)C(=O)N[C@@H](CC(=O)O)C(=O)N[C@@H](CCCCN)C(=O)N3)NC(=O)[C@H](CCCCN)NC(=O)[C@H](CCCNC(=N)N)NC(=O)[C@H](CC(N)=O)NC(=O)[C@@H]1CCCN1C2=O [Peptide D27A] (H-GDDCLGMFSSCDPNNDKCCPNRKCSRKAQWCKYQLW-OH; disulfide 4-19, 11-24, 18-31) | 0.353 | – | 0.287 | – |
| CC(C)C[C@@H]1NC(=O)[C@@H](NC(=O)[C@H](CC(=O)O)NC(=O)[C@H](CC(=O)O)NC(=O)CN)CSSC[C@@H]2NC(=O)[C@@H]3CSSC[C@@H](C(=O)N[C@@H](CCCCN)C(=O)N[C@@H](Cc4ccc(O)cc4)C(=O)N[C@@H](CCC(N)=O)C(=O)N[C@@H](CC(C)C)C(=O)N[C@@H](Cc4c[nH]c5ccccc45)C(=O)O)NC(=O)[C@H](Cc4c[nH]c5ccccc45)NC(=O)[C@H](CCC(N)=O)NC(=O)[C@H](CC(=O)O)NC(=O)[C@H](CCCCN)NC(=O)[C@H](CCCNC(=N)N)NC(=O)[C@H](CO)NC(=O)[C@H](CSSC[C@H](NC(=O)[C@H](CO)NC(=O)[C@H](CO)NC(=O)[C@H](Cc4ccccc4)NC(=O)[C@H](C)NC(=O)CNC1=O)C(=O)N[C@@H](CC(=O)O)C(=O)N1CCC[C@H]1C(=O)N[C@@H](CC(N)=O)C(=O)N[C@@H](CC(N)=O)C(=O)N[C@@H](CC(=O)O)C(=O)N[C@@H](CCCCN)C(=O)N3)NC(=O)[C@H](CCCCN)NC(=O)[C@H](CCCNC(=N)N)NC(=O)[C@H](CC(N)=O)NC(=O)[C@@H]1CCCN1C2=O [Peptide M6A] (H-GDDCLGAFSSCDPNNDKCCPNRKCSRKDQWCKYQLW-OH; disulfide 4-19, 11-24, 18-31) | > 1 | – | > 1 | – |
| CSCC[C@@H]1NC(=O)CNC(=O)[C@H](CC(C)C)NC(=O)[C@@H](NC(=O)[C@H](CC(=O)O)NC(=O)[C@H](CC(=O)O)NC(=O)CN)CSSC[C@@H]2NC(=O)[C@@H]3CSSC[C@@H](C(=O)N[C@@H](CCCCN)C(=O)N[C@@H](Cc4ccc(O)cc4)C(=O)N[C@@H](CCC(N)=O)C(=O)N[C@@H](CC(C)C)C(=O)N[C@@H](Cc4c[nH]c5ccccc45)C(=O)O)NC(=O)[C@H](Cc4c[nH]c5ccccc45)NC(=O)[C@H](C)NC(=O)[C@H](CC(=O)O)NC(=O)[C@H](CCCCN)NC(=O)[C@H](CCCNC(=N)N)NC(=O)[C@H](CO)NC(=O)[C@H](CSSC[C@H](NC(=O)[C@H](CO)NC(=O)[C@H](CO)NC(=O)[C@H](Cc4ccccc4)NC1=O)C(=O)N[C@@H](CC(=O)O)C(=O)N1CCC[C@H]1C(=O)N[C@@H](CC(N)=O)C(=O)N[C@@H](CC(N)=O)C(=O)N[C@@H](CC(=O)O)C(=O)N[C@@H](CCCCN)C(=O)N3)NC(=O)[C@H](CCCCN)NC(=O)[C@H](CCCNC(=N)N)NC(=O)[C@H](CC(N)=O)NC(=O)[C@@H]1CCCN1C2=O [Peptide Q28A] (H-GDDCLGMFSSCDPNNDKCCPNRKCSRKDAWCKYQLW-OH; disulfide 4-19, 11-24, 18-31) | > 1 | – | > 1 | – |
